Assay results taken from patent publication US7175856B2, “Palatable oral suspension and method” (Bristol-Myers Squibb Company, priority 2002, dated 2007).

Assay: physchem
Format: physicochemical

`C[C@H]1NCc2cc(-c3ccc4c(=O)c(C(=O)O)cn(C5CC5)c4c3OC(F)F)ccc21` [des-quinolone, 1-Cyclopropyl-8-(difluoromethoxy)-7-[(1R)-1-methyl-2,3-dihydro-1H-5-isoindolyl]-4-oxo-1,4-dihydro-3-quinolinecarboxylic acid methanesulfonate monohydrate] gave a solubility (aqueous buffer) of about 70 µg/mL and a solubility (water) of about 17400 µg/mL.
